Earlier results, collected in patent US6759057B1, “Methods and compositions using liposome-encapsulated non-steroidal anti-inflammatory drugs” (The Liposome Company, Inc., priority 1986, dated 2004).

Tested on: rat stomach mucosa
Conditions: rats dosed with Prostaglandin E2

Compound: CCCCC[C@H](O)/C=C/[C@H]1[C@H](O)CC(=O)[C@@H]1C/C=C\CCCC(=O)O [Prostaglandin E2]
- increase in the major gastric surface protective surfactant: 2-6 fold
